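Dose response: 5 concentrations. Exposure: 48 h. Format: 96-well plates. Endpoint: linear interpolation; highest concentration if not reached. At the GI50, growth is halved. TGI: concentration producing complete growth inhibition.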
Experiments:
Assay in all cases: NCI anticancer screen, dose series, 48 h
786-0 renal = tested on: 786-0 renal
A549 NSCLC = tested on: A549 NSCLC
ACHN renal = tested on: ACHN renal
BT-549 breast = tested on: BT-549 breast
CAKI-1 renal = tested on: CAKI-1 renal
COLO 205 colon = tested on: COLO 205 colon
DU-145 prostate = tested on: DU-145 prostate
EKVX NSCLC = tested on: EKVX NSCLC
HCT-116 colon = tested on: HCT-116 colon
HCT-15 colon = tested on: HCT-15 colon
HL-60(TB) leukemia = tested on: HL-60(TB) leukemia
HOP-62 NSCLC = tested on: HOP-62 NSCLC
HOP-92 NSCLC = tested on: HOP-92 NSCLC
HS 578T breast = tested on: HS 578T breast
IGROV1 ovarian = tested on: IGROV1 ovarian
K-562 leukemia = tested on: K-562 leukemia
KM12 colon = tested on: KM12 colon
LOX IMVI melanoma = tested on: LOX IMVI melanoma
M14 melanoma = tested on: M14 melanoma
MDA-MB-231 breast = tested on: MDA-MB-231 breast
MDA-MB-435 = tested on: MDA-MB-435
MOLT-4 leukemia = tested on: MOLT-4 leukemia
NCI-H226 lung = tested on: NCI-H226 lung
NCI-H460 lung = tested on: NCI-H460 lung
NCI-H522 lung = tested on: NCI-H522 lung
NCI/ADR-RES ovarian = tested on: NCI/ADR-RES ovarian
OVCAR-3 ovarian = tested on: OVCAR-3 ovarian
OVCAR-4 ovarian = tested on: OVCAR-4 ovarian
OVCAR-5 ovarian = tested on: OVCAR-5 ovarian
OVCAR-8 ovarian = tested on: OVCAR-8 ovarian
PC-3 prostate = tested on: PC-3 prostate
RPMI-8226 leukemia = tested on: RPMI-8226 leukemia
RXF 393 renal = tested on: RXF 393 renal
SF-268 CNS = tested on: SF-268 CNS
SF-295 CNS = tested on: SF-295 CNS
SF-539 CNS = tested on: SF-539 CNS
SK-MEL-2 melanoma = tested on: SK-MEL-2 melanoma
SK-MEL-28 melanoma = tested on: SK-MEL-28 melanoma
SK-MEL-5 melanoma = tested on: SK-MEL-5 melanoma
SK-OV-3 ovarian = tested on: SK-OV-3 ovarian
SN12C renal = tested on: SN12C renal
SNB-19 CNS = tested on: SNB-19 CNS
SNB-75 CNS = tested on: SNB-75 CNS
SR leukemia = tested on: SR leukemia
SW-620 colon = tested on: SW-620 colon
T-47D breast = tested on: T-47D breast
TK-10 renal = tested on: TK-10 renal
U251 CNS = tested on: U251 CNS
UACC-257 melanoma = tested on: UACC-257 melanoma
UACC-62 melanoma = tested on: UACC-62 melanoma
UO-31 renal = tested on: UO-31 renal
A498 renal = tested on: A498 renal
CCRF-CEM leukemia = tested on: CCRF-CEM leukemia
HCC-2998 colon = tested on: HCC-2998 colon
HT29 colon = tested on: HT29 colon
MALME-3M melanoma = tested on: MALME-3M melanoma
MCF7 breast = tested on: MCF7 breast
NCI-H23 lung = tested on: NCI-H23 lung

CCOC(=O)/C(C#N)=C/Nc1ccc(-c2nc3ccccc3[nH]2)cc1
GI50 (786-0 renal): 27.2 µM
TGI (786-0 renal): 64.7 µM
GI50 (A549 NSCLC): 52.7 µM
TGI (A549 NSCLC): > 100 µM
GI50 (ACHN renal): 25.4 µM
TGI (ACHN renal): 78 µM
GI50 (BT-549 breast): 34.1 µM
TGI (BT-549 breast): 85.5 µM
GI50 (CAKI-1 renal): 26.6 µM
TGI (CAKI-1 renal): 74.1 µM
GI50 (COLO 205 colon): 28.8 µM
TGI (COLO 205 colon): > 100 µM
GI50 (DU-145 prostate): 66.6 µM
TGI (DU-145 prostate): > 100 µM
GI50 (EKVX NSCLC): 34.4 µM
TGI (EKVX NSCLC): > 100 µM
GI50 (HCT-116 colon): > 100 µM
TGI (HCT-116 colon): > 100 µM
GI50 (HCT-15 colon): 34.1 µM
TGI (HCT-15 colon): > 100 µM
GI50 (HL-60(TB) leukemia): 40.5 µM
TGI (HL-60(TB) leukemia): 97.3 µM
GI50 (HOP-62 NSCLC): 31.1 µM
TGI (HOP-62 NSCLC): 74.7 µM
GI50 (HOP-92 NSCLC): 42.1 µM
TGI (HOP-92 NSCLC): > 100 µM
GI50 (HS 578T breast): 24.3 µM
TGI (HS 578T breast): 79.5 µM
GI50 (IGROV1 ovarian): 22.7 µM
TGI (IGROV1 ovarian): > 100 µM
GI50 (K-562 leukemia): 25.1 µM
TGI (K-562 leukemia): 98.6 µM
GI50 (KM12 colon): 16.1 µM
TGI (KM12 colon): 44.1 µM
GI50 (LOX IMVI melanoma): 19.4 µM
TGI (LOX IMVI melanoma): 41.5 µM
GI50 (M14 melanoma): 62.3 µM
TGI (M14 melanoma): > 100 µM
GI50 (MDA-MB-231 breast): 18.1 µM
TGI (MDA-MB-231 breast): 45.1 µM
GI50 (MDA-MB-435): 33.8 µM
TGI (MDA-MB-435): > 100 µM
GI50 (MOLT-4 leukemia): 35.1 µM
TGI (MOLT-4 leukemia): > 100 µM
GI50 (NCI-H226 lung): > 100 µM
TGI (NCI-H226 lung): > 100 µM
GI50 (NCI-H460 lung): 24.8 µM
TGI (NCI-H460 lung): > 100 µM
GI50 (NCI-H522 lung): 24 µM
TGI (NCI-H522 lung): > 100 µM
GI50 (NCI/ADR-RES ovarian): 41.4 µM
TGI (NCI/ADR-RES ovarian): 66.1 µM
GI50 (OVCAR-3 ovarian): 20.4 µM
TGI (OVCAR-3 ovarian): 51.6 µM
GI50 (OVCAR-4 ovarian): 31.4 µM
TGI (OVCAR-4 ovarian): > 100 µM
GI50 (OVCAR-5 ovarian): 50.8 µM
TGI (OVCAR-5 ovarian): > 100 µM
GI50 (OVCAR-8 ovarian): > 100 µM
TGI (OVCAR-8 ovarian): > 100 µM
GI50 (PC-3 prostate): 29.8 µM
TGI (PC-3 prostate): > 100 µM
GI50 (RPMI-8226 leukemia): 19.7 µM
TGI (RPMI-8226 leukemia): > 100 µM
GI50 (RXF 393 renal): 76.7 µM
TGI (RXF 393 renal): > 100 µM
GI50 (SF-268 CNS): 19.2 µM
TGI (SF-268 CNS): 47.4 µM
GI50 (SF-295 CNS): 27.4 µM
TGI (SF-295 CNS): 76.8 µM
GI50 (SF-539 CNS): 21.5 µM
TGI (SF-539 CNS): 40.9 µM
GI50 (SK-MEL-2 melanoma): 42.6 µM
TGI (SK-MEL-2 melanoma): > 100 µM
GI50 (SK-MEL-28 melanoma): 22.5 µM
TGI (SK-MEL-28 melanoma): 54.1 µM
GI50 (SK-MEL-5 melanoma): 28.5 µM
TGI (SK-MEL-5 melanoma): > 100 µM
GI50 (SK-OV-3 ovarian): 25.6 µM
TGI (SK-OV-3 ovarian): 99.3 µM
GI50 (SN12C renal): 19.5 µM
TGI (SN12C renal): 55.6 µM
GI50 (SNB-19 CNS): 36.5 µM
TGI (SNB-19 CNS): > 100 µM
GI50 (SNB-75 CNS): 24.2 µM
TGI (SNB-75 CNS): 56.7 µM
GI50 (SR leukemia): 40.8 µM
TGI (SR leukemia): > 100 µM
GI50 (SW-620 colon): 54.1 µM
TGI (SW-620 colon): > 100 µM
GI50 (T-47D breast): 33.9 µM
TGI (T-47D breast): > 100 µM
GI50 (TK-10 renal): 16.8 µM
TGI (TK-10 renal): 54.2 µM
GI50 (U251 CNS): 23.2 µM
TGI (U251 CNS): 65.9 µM
GI50 (UACC-257 melanoma): 62.1 µM
TGI (UACC-257 melanoma): > 100 µM
GI50 (UACC-62 melanoma): 18.7 µM
TGI (UACC-62 melanoma): 62.4 µM
GI50 (UO-31 renal): 21.1 µM
TGI (UO-31 renal): > 100 µM

Cc1cccc(NC2=NCCO2)c1Cl
TGI (786-0 renal): > 100 µM
TGI (A498 renal): > 100 µM
TGI (A549 NSCLC): > 100 µM
TGI (ACHN renal): > 100 µM
TGI (CCRF-CEM leukemia): > 100 µM
TGI (COLO 205 colon): > 100 µM
TGI (DU-145 prostate): > 100 µM
TGI (EKVX NSCLC): > 100 µM
TGI (HCC-2998 colon): > 100 µM
TGI (HCT-116 colon): > 100 µM
TGI (HCT-15 colon): > 100 µM
TGI (HL-60(TB) leukemia): > 100 µM
TGI (HOP-62 NSCLC): > 100 µM
TGI (HOP-92 NSCLC): > 100 µM
TGI (HS 578T breast): > 100 µM
TGI (HT29 colon): > 100 µM
TGI (IGROV1 ovarian): > 100 µM
TGI (K-562 leukemia): > 100 µM
TGI (KM12 colon): > 100 µM
TGI (M14 melanoma): > 100 µM
TGI (MALME-3M melanoma): > 100 µM
TGI (MCF7 breast): > 100 µM
TGI (MDA-MB-231 breast): > 100 µM
TGI (MDA-MB-435): > 100 µM
TGI (MOLT-4 leukemia): > 100 µM
TGI (NCI-H226 lung): > 100 µM
TGI (NCI-H23 lung): > 100 µM
TGI (NCI-H460 lung): > 100 µM
TGI (NCI/ADR-RES ovarian): > 100 µM
TGI (OVCAR-4 ovarian): > 100 µM
TGI (OVCAR-5 ovarian): > 100 µM
TGI (OVCAR-8 ovarian): > 100 µM
TGI (RPMI-8226 leukemia): > 100 µM
TGI (RXF 393 renal): > 100 µM
TGI (SF-268 CNS): > 100 µM
TGI (SF-295 CNS): > 100 µM
TGI (SF-539 CNS): > 100 µM
TGI (SK-MEL-28 melanoma): > 100 µM
TGI (SK-MEL-5 melanoma): > 100 µM
TGI (SK-OV-3 ovarian): > 100 µM
TGI (SN12C renal): > 100 µM
TGI (SNB-19 CNS): > 100 µM
TGI (SNB-75 CNS): > 100 µM
TGI (SR leukemia): > 100 µM
TGI (SW-620 colon): > 100 µM
TGI (T-47D breast): > 100 µM
TGI (TK-10 renal): > 100 µM
TGI (U251 CNS): > 100 µM
TGI (UACC-257 melanoma): > 100 µM
TGI (UACC-62 melanoma): > 100 µM
TGI (UO-31 renal): > 100 µM
